According to patent US11692164B2, “Antibiotic-free compositions for the prevention or control of coccidiosis” (Huvepharma Inc., priority 2017, dated 2023):
Where two headings read alike, the source gives them in different places.

What was measured:
[1] = test system: Eimeria acervulina oocysts; details: 0.1% formalin; stored 4 months at 2-7° C.; compared to same lot of oocysts stored with 0% formalin
Eimeria maxima oocysts = details: 0.675% formalin; stored 2 weeks at 2-7° C.; compared to same lot of oocysts stored with 0% formalin
[2] = test system: Vaccine Serial (E. acervulina, E. maxima and E. tenella oocysts); details: storage at 2-7° C.
E. tenella oocysts = details: storage at 2-7° C.
Protocol: (§1) The effect of formalin on oocyst viability was investigated using oocyst lots of each Eimeria species (E. acervulina, E. maxima and E. tenella) and on vaccine. Viability was determined initially prior to the addition of formalin, and then after 1 year of storage at 2-7° C.

E. maxima oocysts [3] = details: storage at 2-7° C.
Protocol: as §1

E. acervulina oocysts = details: storage at 2-7° C.
Protocol: as §1

[4] = test system: B. subtilis and P. chrysogenum; experiment: Minimal inhibitory concentration of disinfectants in E. maxima oocysts spiked with B. subtilis and P. chrysogenum; format: cell-based, Bacillus subtilis and Penicillium chrysogenum
Protocol: (§2) In this example, additional disinfectant compounds were tested for their ability to inhibit microbial growth in Eimeria oocyst samples as compared to formalin. E. maxima oocysts were spiked with B. subtilis and P. chrysogenum, and the minimal inhibitory concentrations of several disinfectants were determined. The disinfectants were then added to E. maxima oocysts and the oocysts were stored at 2-7° C. for 6 months. The oocysts were assayed for viability and the decrease in viability due to the disinfectant was calculated by comparison to the same lot of oocysts stored in 0.5×PBS only. Exemplary results are summarized below in Table 5.

E. maxima oocysts [5] = experiment: Effect of disinfectants at minimal inhibitory concentration on E. maxima oocyst viability; format: cell-based, Eimeria maxima
Protocol: as §2

Row | SMILES | Decrease in Viability [1] [%] | Decrease in Viability (Eimeria maxima oocysts) [%] | % Viable Oocysts after Storage for 12 Months, Vaccine Serial 12 mo ([2]; formalin concentration 0.0028) [%] | % Viable Oocysts after Storage for 12 Months, Vaccine Serial 12 mo ([2]; formalin concentration 0.0071) [%] | % Viable Oocysts after Storage for 12 Months, E. tenella 12 mo (E. tenella oocysts; formalin concentration 0.010) [%] | % Viable Oocysts after Storage for 12 Months, E. tenella 12 mo (E. tenella oocysts; formalin concentration 0.025) [%] | % Viable Oocysts after Storage for 12 Months, E. maxima 12 mo (E. maxima oocysts [3]; formalin concentration 0.010) [%] | % Viable Oocysts after Storage for 12 Months, E. maxima 12 mo (E. maxima oocysts [3]; formalin concentration 0.025) [%] | % Viable Oocysts after Storage for 12 Months, E. acervulina 12 mo (E. acervulina oocysts; formalin concentration 0.010) [%] | % Viable Oocysts after Storage for 12 Months, E. acervulina 12 mo (E. acervulina oocysts; formalin concentration 0.025) [%] | Minimal Inhibitory Concentration [4] [%] | Decrease in Viability (E. maxima oocysts [5]) [%] | Decrease in Viability (E. maxima oocysts [5]; disinfectant at minimal inhibitory concentration, 6 months of storage at 2-7 C., compared to same lot stored with 0% disinfectant (0.5×PBS only)) [%]
1 | C=O [Formalin, formaldehyde] | 37 | 49 | 83 | 84 | 95 | 86 | 47 | 41 | 59 | 27 |  |  | 
2 | Cc1ccc(C(C)C)c(O)c1 [Thymol] |  |  |  |  |  |  |  |  |  |  | 0.0063 | 15 | 
3 | CC(C)=CCCC(C)=CC=O [Citral] |  |  |  |  |  |  |  |  |  |  | 0.0125 |  | 24
